Assay [1] deals with T1, human CHK1 (FL-CHK1) (Homo sapiens, UniProt O14757).
T1 construct: C-terminally His-tagged full-length human CHK1 (FL-CHK1); made in house; host or cells: baculovirus/insect cell system
T1 sequence (O14757 1-476): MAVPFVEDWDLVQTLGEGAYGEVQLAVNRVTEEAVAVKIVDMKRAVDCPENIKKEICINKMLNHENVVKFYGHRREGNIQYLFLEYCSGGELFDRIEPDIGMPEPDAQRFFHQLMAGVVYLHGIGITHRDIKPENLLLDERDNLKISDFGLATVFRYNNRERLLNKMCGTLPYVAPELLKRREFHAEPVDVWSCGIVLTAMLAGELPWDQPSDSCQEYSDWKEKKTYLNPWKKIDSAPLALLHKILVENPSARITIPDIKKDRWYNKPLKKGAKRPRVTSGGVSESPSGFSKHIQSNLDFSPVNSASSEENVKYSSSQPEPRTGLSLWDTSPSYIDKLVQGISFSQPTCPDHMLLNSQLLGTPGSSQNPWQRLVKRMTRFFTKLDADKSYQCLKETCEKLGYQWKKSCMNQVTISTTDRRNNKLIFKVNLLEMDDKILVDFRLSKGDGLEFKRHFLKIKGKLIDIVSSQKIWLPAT
Put plainly: CHK1 assay (coupled spectrophotometric, Syntide-2). It is filed as biochemical. The conditions noted are these: for CHK-1 @ 20 μM: Table 4, compound at 20 μM; for Ki: read-out: CHK-1 Ki. From the text: CHK1 Construct for Assay: C-terminally His-tagged full-length human CHK1 (FL-CHK1) was expressed using the baculovirus/insect cell system. […] The protein was purified by conventional chromatographic techniques.
The production of ADP from ATP that accompanies phosphoryl transfer to the synthetic substrate peptide Syntide-2 ([…]) was coupled to oxidation of NADH using phosphoenolpyruvate (PEP) through the actions of pyruvate kinase (PK) and lactic dehydrogenase (LDH). The oxidation of NADH was monitored by following the decrease of absorbance at 340 nm (ε340=6.22 cm^−1 mM^−1) using a HP8452 spectrophotometer. […] Assays were initiated with 10 nM of FL-CHK1. Ki values were determined by measuring initial enzyme activity in the presence of varying concentrations of test compounds. The data were analyzed using Enzyme Kinetic and Kaleidagraph software.

Assay [2] has as its target unphosphorylated VEGF-R2Δ50 (FLVK) (Homo sapiens, UniProt P35968, DEL940-989/E990V). Put plainly: VEGF-R2 coupled spectrophotometric assay, unphosphorylated VEGF-R2Δ50 (FLVK). The conditions noted are these: FLVK Ki, Table 1.

Like-named read-outs stand apart in the source and are kept apart here.

As usually defined, the Ki is a dissociation constant, usually derived from enzyme kinetics or from competition with a known ligand.

unphosphorylated VEGF-R2Δ50 (FLVK), sequence (P35968 with tags, fused parts or gaps DEL940-989/E990V limits assumed): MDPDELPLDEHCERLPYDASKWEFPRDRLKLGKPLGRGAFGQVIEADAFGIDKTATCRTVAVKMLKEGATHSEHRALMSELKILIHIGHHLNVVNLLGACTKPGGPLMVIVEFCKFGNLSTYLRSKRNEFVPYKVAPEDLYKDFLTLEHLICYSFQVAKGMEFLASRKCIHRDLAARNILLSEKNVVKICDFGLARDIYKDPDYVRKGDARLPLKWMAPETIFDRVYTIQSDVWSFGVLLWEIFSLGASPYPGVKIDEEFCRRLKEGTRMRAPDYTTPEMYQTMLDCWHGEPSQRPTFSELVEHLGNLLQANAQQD

For the molecule `O=C(Nc1cc[nH]n1)c1ccc2c(-c3nc4ccccc4[nH]3)n[nH]c2c1`, the “CHK-1 @ 20 μM” value in assay [1] came to 52.4.

`O=C(Nc1cc(O)[nH]n1)c1ccc2c(-c3nc4ccccc4[nH]3)n[nH]c2c1`: the “CHK-1 @ 20 μM” value in assay [1] was determined as 38.6.

As to `Cc1nc(/C=C/c2n[nH]c3cc(-c4ccncc4)ccc23)cs1` [29(j), 6-Pyrid-4-yl-3-E-[2-(2-methylthiazol-4-yl)ethenyl]-1H-indazole], in assay [1] (Table 3), the Ki came to 533 nM.

Take `Nc1cccc(Oc2ccc3c(/C=C/c4ccccc4)n[nH]c3c2)c1` [Example 7, 3-(Styryl-1H-indazol-6-yloxy)-phenylamine]: the Ki is 1300 nM in assay [1] (Table 1) and 18 nM in assay [2].

As for `Brc1cccc(Oc2ccc3c(/C=C/c4ccccc4)n[nH]c3c2)c1` [Example 8(d), 6-(3-Bromo-phenoxy)-3-styryl-1H-indazole], the Ki was determined as 82000 nM in assay [1] (Table 1) and 11 nM in assay [2].

Take `C=C(c1ccccc1)c1ccc2c(/C=C/c3ccccc3)n[nH]c2c1` [Example 10, 6-(1-Phenyl-vinyl)-3-styryl-1H-indazole]: the Ki in assay [1] (Table 1) was 9100 nM; in assay [2], 9 nM.

Turning to `O=C(c1ccccc1)c1ccc2c(/C=C/c3ccccc3)n[nH]c2c1` [Example 17, Phenyl-(3-styryl-1H-indazol-6-yl)-methanone], the Ki in assay [1] (Table 1) came out at 532 nM.

On to `C(=C\c1n[nH]c2cc(-c3cccc4[nH]ccc34)ccc12)/c1ccccc1` [Example 27(g), 6-Indol-4-yl-3-E-styryl-1H-indazole], for which the Ki in assay [1] (Table 3) is 850 nM.

As to `COc1ccc(-c2ccc3c(/C=C/c4ccccc4)n[nH]c3c2)cn1` [Example 27(k), 6-(2-Methoxypyridin-5-yl)-3-E-styryl-1H-indazole], the Ki in assay [1] (Table 3) stood at 24000 nM.

Consider `Oc1ccc(-c2ccc3c(/C=C/c4ccccc4)n[nH]c3c2)cc1` [Example 28(b)], for which the Ki in assay [1] (Table 3) is 14.3 nM.

Take `Oc1ccc(-c2ccc3c(/C=C/c4ccccc4)n[nH]c3c2)cc1O` [Example 28(d), 6-(3,4-Dihydroxyphenyl)-3-E-styryl-1H-indazole]: the Ki in assay [1] (Table 3) is 18 nM.

`C(=C\c1n[nH]c2cc(-c3ccncc3)ccc12)/c1ccc(-c2ccccc2)cc1` [Example 29(d), 6-Pyrid-4-yl-3-E-[2-(biphenyl-4-yl)ethenyl]-1H-indazole]: the Ki in assay [1] (Table 3) worked out at 10000 nM.

For `C(=C\c1n[nH]c2cc(-c3ccncc3)ccc12)/c1ccc2ccccc2c1` [Example 29(k), 6-Pyrid-4-yl-3-E-[2-(naphthalen-2-yl)ethenyl]-1H-indazole], the inhibition constant Ki in assay [1] (Table 3) stood at 1300 nM.

On to `Fc1cc(F)cc(/C=C/c2n[nH]c3cc(-c4ccncc4)ccc23)c1` [Example 29(m), 6-Pyrid-4-yl-3-E-[2-(3,5-difluorophenyl)ethenyl]-1H-indazole], for which the Ki in assay [1] (Table 3) was determined as 1000 nM.

In the case of `C(=C\c1n[nH]c2cc(-c3ccncc3)ccc12)/c1cccc(-c2ccccc2)c1` [Example 29(n), 6-Pyrid-4-yl-3-E-[2-(biphenyl-3-yl)ethenyl]-1H-indazole], the Ki in assay [1] (Table 3) was found to be 16000 nM.

Take `Fc1cccc(F)c1/C=C/c1n[nH]c2cc(-c3ccncc3)ccc12` [Example 29(o), 6-Pyrid-4-yl-3-E-[2-(2,6-difluorophenyl)ethenyl]-1H-indazole]: the Ki in assay [1] (Table 3) was determined as 46000 nM.

Take `C(=C\c1n[nH]c2cc(-c3ccncc3)ccc12)/c1nc2ccccc2[nH]1` [Example 29(q), 6-Pyrid-4-yl-3-E-[2-(4-benzimidazol-2-yl)ethenyl]-1H-indazole]: the Ki in assay [1] (Table 3) was 11000 nM.

Turning to `C(=C\c1n[nH]c2cc(-c3ccncc3)ccc12)/c1ccc[nH]1` [Example 29(t), 6-Pyrid-4-yl-3-E-[2-(1H-pyrrol-2-yl)ethenyl]-1H-indazole], the Ki in assay [1] (Table 3) was 72 nM.

`O=C(NC1CC1)c1ccc2c(-c3nc4ccccc4[nH]3)n[nH]c2c1` [Example 53(b), 3-(1H-Benzoimidazol-2-yl)-N-cyclopropyl-1H-indazole-6-carboxamide]: the Ki in assay [1] (Table 3) was determined as 1400 nM.

`O=C(NOCc1ccccc1)c1ccc2c(-c3nc4ccccc4[nH]3)n[nH]c2c1` [Example 53(f), 3-(1H-Benzoimidazol-2-yl)-N-benzyloxy-1H-indazole-6-carboxamide]: the Ki in assay [1] (Table 3) came out at 7300 nM.

`O=C(Nc1ccc(O)c(F)c1)c1ccc2c(-c3nc4ccccc4[nH]3)n[nH]c2c1` [Example 53(g), 3-(1H-Benzoimidazol-2-yl)-N-(3-fluoro-4-hydroxyphenyl)-1H-indazole-6-carboxamide]: the Ki in assay [1] (Table 3) is 1500 nM.

On to `O=C(Nc1ccc(O)cc1)c1ccc2c(-c3nc4cc(Cl)c(Cl)cc4[nH]3)n[nH]c2c1` [Example 54(b), 3-(5,6-Dichloro-1H-benzoimidazol-2-yl)-N-(4-hydroxyphenyl)-1H-indazole-6-carboxamide], for which the Ki in assay [1] (Table 3) stood at 3100 nM.

Regarding `O=C(Nc1ccc(O)cc1)c1ccc2c(-c3nc4cc5ccccc5cc4[nH]3)n[nH]c2c1` [Example 54(d), 3-[1H-Naphtho(2,3-d)imidazol-2-yl]-N-(4-hydroxyphenyl)-1H-indazole-6-carboxamide], the Ki in assay [1] (Table 3) turned out to be 680 nM.

Consider `Cc1ccc2[nH]c(-c3n[nH]c4cc(C(=O)Nc5ccc(O)cc5)ccc34)nc2c1C` [Example 54(f), 3-(4,5-Dimethyl-1H-benzoimidazol-2-yl)-N-(4-hydroxyphenyl)-1H-indazole-6-carboxamide], for which, in assay [1] (Table 3), the Ki worked out at 2900 nM.

As for `O=C(Nc1ccc(O)cc1)c1ccc2c(-c3nc4cc(C(F)(F)F)ccc4[nH]3)n[nH]c2c1` [Example 54(h), 3-(5-Trifluoromethyl-1H-benzoimidazol-2-yl)-N-(4-hydroxyphenyl)-1H-indazole-6-carboxamide], the Ki in assay [1] (Table 3) is 1000 nM.

Turning to `O=C(Nc1ccc(O)cc1)c1ccc2c(-c3nc4cc(Cl)ccc4[nH]3)n[nH]c2c1` [Example 54(l), 3-(5-Chloro-1H-benzoimidazol-2-yl)-N-(4-hydroxyphenyl)-1H-indazole-6-carboxamide], in assay [1] (Table 3), the Ki was 990 nM.

Regarding `c1ccc2[nH]c(-c3n[nH]c4cc(-c5ccncc5)ccc34)nc2c1` [Example 55, 3-1H-Benzoimidazol-2-yl-6-pyridin-4-yl-1H-indazole], the Ki in assay [1] (Table 3) came to 10000 nM.

Take `O=C(NC1CCS(=O)(=O)C1)c1ccc2c(-c3nc4ccccc4[nH]3)n[nH]c2c1` (centres unmarked) [drawing 1226]: the “CHK-1 @ 20 μM” value in assay [1] amounted to 24.2.

Take `O=C(Nc1ccc2[nH]c(=O)[nH]c2c1)c1ccc2c(-c3nc4ccccc4[nH]3)n[nH]c2c1` [drawing 1232]: in assay [1], the “CHK-1 @ 20 μM” value was found to be 32.3.

On to `O=C(Nc1cnccn1)c1ccc2c(-c3nc4ccccc4[nH]3)n[nH]c2c1` [drawing 1245], for which the “CHK-1 @ 20 μM” value in assay [1] was found to be 36.3.

Take `O=C(Nc1ncnc2[nH]cnc12)c1ccc2c(-c3nc4ccccc4[nH]3)n[nH]c2c1` [drawing 1250]: in assay [1], the “CHK-1 @ 20 μM” value is 38.6.

`COc1ccc(NC(=O)c2ccc3c(-c4nc5ccccc5[nH]4)n[nH]c3c2)cc1O` [drawing 1257]: the “CHK-1 @ 20 μM” value in assay [1] is listed as 32.3.

Take `COC(=O)c1ccc(NC(=O)c2ccc3c(-c4nc5ccccc5[nH]4)n[nH]c3c2)o1` [drawing 1258]: in assay [1], the “CHK-1 @ 20 μM” value amounted to 42.9.

`C=CCC(NC(=O)c1ccc2c(-c3nc4ccccc4[nH]3)n[nH]c2c1)c1ccccn1` (centres unmarked) [drawing 1259]: the “CHK-1 @ 20 μM” value in assay [1] is on record as 24.1.

As to `COC(=O)c1cc(NC(=O)c2ccc3c(-c4nc5ccccc5[nH]4)n[nH]c3c2)ccc1O` [drawing 1260], in assay [1], the “CHK-1 @ 20 μM” value is given as 31.6.

The values are drawn from patent US6534524B1, “Indazole compounds and pharmaceutical compositions for inhibiting protein kinases, and methods for their use” (Agouron Pharmaceuticals, Inc., priority 1999, dated 2003).
